The values below come from PubChem BioAssay AID493135 (Sanford-Burnham Center for Chemical Genomics, 2011).

Activity calls are given as the source filed them. How the calls were made is not given here.

This experiment deals with intestinal alkaline phosphatase Alpi (Mus musculus). In words: mouse IAP enzyme inhibitors, SAR follow-up, biochemical, luminescence (AID 493135). Conditions: purified mouse IAP, luminescent substrate readout.
With `CCn1c(SCC(=O)c2ccc(O)c(O)c2)nnc1-c1ccccc1OC`, the 50% inhibitory concentration (IC50) (usually the concentration at which inhibition is half-maximal) was 1.9 µM.

Consider `Cc1ccc(CN2CCC(C(=O)Nc3cccc(-c4cccc(F)c4)c3)CC2)o1`, for which the IC50 was > 100 µM (inactive).

Take `Cn1cc(CN2CCC(C(=O)Nc3cccc(-c4cccc(Cl)c4)c3)CC2)cn1`: the IC50 is > 100 µM (inactive).

Regarding `O=C(CN1C(=O)/C(=C\c2ccco2)SC1=S)Nc1ccccc1C(=O)O`, the 50% inhibitory concentration (IC50) is 58.7 µM.

For `S=C(NCCC(c1ccccc1)c1ccccc1)Nc1ccc(Cl)c(Cl)c1`, the IC50 is > 100 µM (inactive).

With `Oc1ccc(-c2csc(Nc3cccc4ccccc34)n2)cc1O`, the concentration for half-maximal inhibition (IC50) was 1.11 µM.

Take `CCn1ncc(CN2CCC(C(=O)Nc3cccc(-c4cccc(F)c4)c3)CC2)c1C`: the IC50 is > 100 µM (inactive).

For the molecule `C=CCn1cc(CN2CCC(C(=O)Nc3cccc(-c4cccc(Cl)c4)c3)CC2)c(C)n1`, the IC50 is > 100 µM (inactive).

In the case of `NS(=O)(=O)c1ccc(NC(=S)NCCC(c2ccccc2)c2ccccc2)cc1`, the IC50 is > 100 µM (inactive).

Regarding `CCn1cc(CN2CCC(C(=O)Nc3cccc(-c4cccc(Cl)c4)c3)CC2)cn1`, the IC50 was > 100 µM (inactive).

As to `CCn1cc(CN2CCC(C(=O)Nc3cccc(-c4cccc(OC)c4)c3)CC2)cn1`, the IC50 is > 100 µM (inactive).

`CN(C)S(=O)(=O)c1cccc(NC(=S)NCCC(c2ccccc2)c2ccccc2)c1`: the IC50 was > 100 µM (inactive).

Regarding `CCn1cc(CN2CCC(C(=O)Nc3cccc(-c4cccc(F)c4)c3)CC2)cn1`, the IC50 is > 100 µM (inactive).

Regarding `COc1cc([N+](=O)[O-])ccc1NC(=S)NCCC(c1ccccc1)c1ccccc1`, the IC50 is > 100 µM (inactive).

In the case of `Cc1ccc(NC(=S)NCCC(c2ccccc2)c2ccccc2)cc1C`, the IC50 is > 100 µM (inactive).

As for `Cc1c(Cl)cccc1NC(=S)NCCC(c1ccccc1)c1ccccc1`, the IC50 was > 100 µM (inactive).

Consider `Cc1cc(=O)oc2cc(NC(=S)NCCC(c3ccccc3)c3ccccc3)ccc12`, for which the IC50 was > 100 µM (inactive).

On to `COc1ccc(Cl)cc1Nc1nc(-c2ccc(O)c(O)c2)cs1`, for which the IC50 is 1.42 µM.

For `COc1cccc(-c2cccc(NC(=O)C3CCN(Cc4ccc(C)o4)CC3)c2)c1`, the IC50 was > 100 µM (inactive).

Consider `O=[N+]([O-])c1ccc(NC(=S)NCCC(c2ccccc2)c2ccccc2)cc1`, for which the IC50 is > 100 µM (inactive).

`FC(F)(F)c1cccc(NC(=S)NCCC(c2ccccc2)c2ccccc2)c1`: the IC50 was > 100 µM (inactive).

On to `Cn1cc(CN2CCC(C(=O)Nc3cccc(-c4cccc(F)c4)c3)CC2)cn1`, for which the IC50 is > 100 µM (inactive).

Turning to `COc1cccc(NC(=S)NCCC(c2ccccc2)c2ccccc2)c1`, the IC50 was > 100 µM (inactive).

For `COc1cc(NC(=S)NCCC(c2ccccc2)c2ccccc2)cc(OC)c1`, the IC50 was > 100 µM (inactive).

Regarding `O=C(CN1C(=O)/C(=C/c2ccco2)SC1=S)Nc1ccc(C(=O)O)cc1`, the half-inhibitory concentration (IC50) is 7.97 µM.

`Cc1cc(C)cc(NC(=S)NCCC(c2ccccc2)c2ccccc2)c1`: the IC50 is > 100 µM (inactive).

As to `O=C(Nc1cccc(-c2cccc(Cl)c2)c1)C1CCN(Cc2ccc(CO)o2)CC1`, the IC50 is > 100 µM (inactive).

`Cc1ccc(NC(=O)CCNS(=O)(=O)c2ccc3[nH]c(=O)oc3c2)cc1C`: the IC50 was 87.1 µM.

Consider `CCCn1ncc(CN2CCC(C(=O)Nc3cccc(-c4cccc(F)c4)c3)CC2)c1C`, for which the IC50 is > 100 µM (inactive).

In the case of `COc1ccc(C(=O)CSc2n[nH]c(-c3ccccc3)n2)cc1OC`, the IC50 was > 100 µM (inactive).

For the molecule `O=C(Nc1cccc(-c2cccc(F)c2)c1)C1CCN(Cc2ccc(CO)o2)CC1`, the IC50 is > 100 µM (inactive).

Take `COCc1ccc(CN2CCC(C(=O)Nc3cccc(-c4cccc(Cl)c4)c3)CC2)o1`: the IC50 was > 100 µM (inactive).

Regarding `CC(C)n1cc(CN2CCC(C(=O)Nc3cccc(-c4cccc(F)c4)c3)CC2)cn1`, the IC50 was > 100 µM (inactive).

As for `CC(C)n1cc(CN2CCC(C(=O)Nc3cccc(-c4cccc(Cl)c4)c3)CC2)cn1`, the IC50 is > 100 µM (inactive).

Regarding `Cc1cc(NC(=O)CCNS(=O)(=O)c2ccc3[nH]c(=O)oc3c2)ccc1Br`, the IC50 is 81.8 µM.

As for `Cc1nn(C(C)C)c(C)c1CN1CCC(C(=O)Nc2cccc(-c3cccc(F)c3)c2)CC1`, the IC50 was > 100 µM (inactive).

Consider `Cc1ccc(NC(=S)NCCC(c2ccccc2)c2ccccc2)cc1`, for which the IC50 was > 100 µM (inactive).

Turning to `CN1CCC(=NNC(=O)c2cc(O)c(O)c(O)c2)CC1`, the concentration for half-maximal inhibition (IC50) is 38.7 µM.

As to `Cc1c(CN2CCC(C(=O)Nc3cccc(-c4cccc(Cl)c4)c3)CC2)cnn1C`, the IC50 is > 100 µM (inactive).

Take `O=S(=O)(Nc1ncccn1)c1ccc(NC(=S)NCCC(c2ccccc2)c2ccccc2)cc1`: the IC50 was > 100 µM (inactive).

As to `Fc1ccccc1NC(=S)NCCC(c1ccccc1)c1ccccc1`, the IC50 was > 100 µM (inactive).

Take `COC(=O)c1cc(NC(=S)NCCC(c2ccccc2)c2ccccc2)cc(C(=O)OC)c1`: the IC50 is > 100 µM (inactive).

`CCn1cc(CN2CCC(C(=O)Nc3cccc(-c4cccc(OC)c4)c3)CC2)c(C)n1`: the IC50 is > 100 µM (inactive).

Consider `CCn1nc(C)c(CN2CCC(C(=O)Nc3cccc(-c4cccc(F)c4)c3)CC2)c1C`, for which the IC50 was > 100 µM (inactive).

Turning to `O=C(Nc1cccc(-c2cccc(Cl)c2)c1)C1CCN(C2CCC2)CC1`, the IC50 is > 100 µM (inactive).

As to `S=C(NCCC(c1ccccc1)c1ccccc1)Nc1cccc(Cl)c1`, the IC50 was > 100 µM (inactive).

Regarding `Fc1ccc(NC(=S)NCCC(c2ccccc2)c2ccccc2)cc1Cl`, the IC50 was > 100 µM (inactive).

With `S=C(NCCC(c1ccccc1)c1ccccc1)Nc1ccc(Nc2ccccc2)cc1`, the IC50 was > 100 µM (inactive).

With `S=C(NCCC(c1ccccc1)c1ccccc1)Nc1ccccc1`, the IC50 is > 100 µM (inactive).

As for `Cc1cc(Cl)ccc1NC(=S)NCCC(c1ccccc1)c1ccccc1`, the IC50 was > 100 µM (inactive).

For `COc1ccc(Cl)cc1NC(=S)NCCC(c1ccccc1)c1ccccc1`, the IC50 was > 100 µM (inactive).

On to `S=C(NCCC(c1ccccc1)c1ccccc1)Nc1ccc(Cl)cc1Cl`, for which the IC50 is > 100 µM (inactive).

As for `Cc1nn(C)c(Cl)c1CN1CCC(C(=O)Nc2cccc(-c3cccc(F)c3)c2)CC1`, the IC50 is > 100 µM (inactive).

For `CCN1CCN(S(=O)(=O)c2ccc3[nH]c(=O)oc3c2)CC1`, the IC50 was > 100 µM (inactive).

On to `Cc1c(Cl)cccc1Nc1nc(-c2ccc(O)c(O)c2)cs1`, for which the half-maximal inhibitory concentration (IC50) was 7.51 µM.

For the molecule `CCOC(=O)c1ccc(NC(=S)NCCC(c2ccccc2)c2ccccc2)cc1`, the IC50 was > 100 µM (inactive).

In the case of `CCn1nc(C)c(CN2CCC(C(=O)Nc3cccc(-c4cccc(Cl)c4)c3)CC2)c1C`, the IC50 was > 100 µM (inactive).

For `CCc1ccccc1Nc1nc(-c2ccc(O)c(O)c2)cs1`, the 50% inhibitory concentration (IC50) was 1.55 µM.

On to `Cc1cccc(NC(=S)NCCC(c2ccccc2)c2ccccc2)c1C`, for which the IC50 was > 100 µM (inactive).

For `Cc1ccc(C)c(NC(=S)NCCC(c2ccccc2)c2ccccc2)c1`, the IC50 was > 100 µM (inactive).

For the molecule `S=C(NCCC(c1ccccc1)c1ccccc1)Nc1ccc(Cl)cc1`, the IC50 is > 100 µM (inactive).

Take `CC(C)c1ccccc1NC(=S)NCCC(c1ccccc1)c1ccccc1`: the IC50 was > 100 µM (inactive).

As for `CC(C)N1CCC(=NNC(=O)c2cc(O)c(O)c(O)c2)CC1`, the IC50 is 24.9 µM.

As to `O=C(CN1C(=O)/C(=C/c2ccco2)SC1=S)Nc1cccc(C(=O)O)c1`, the IC50 was 8.17 µM.

For `COc1ccc(NC(=S)NCCC(c2ccccc2)c2ccccc2)cc1`, the IC50 is > 100 µM (inactive).

For `COc1cccc(-c2cccc(NC(=O)C3CCN(Cc4ccc(CO)o4)CC3)c2)c1`, the IC50 was > 100 µM (inactive).

Turning to `C=CCn1cc(CN2CCC(C(=O)Nc3cccc(-c4cccc(F)c4)c3)CC2)c(C)n1`, the IC50 was > 100 µM (inactive).

Regarding `CC1(c2ccccc2)CC(C)(C)N(C(=S)Nc2ccccc2)c2ccccc21` (stereo not drawn), the IC50 is > 100 µM (inactive).
